Source: patent US11845805B2, “Bispecific antibody against CD3 and CD20 in combination therapy for treating diffuse large B-cell lymphoma” (GENMAB A/S, priority 2020, dated 2023)
Like-named read-outs stand apart in the source and are kept apart here.

Columns and labels:
T cells = assay: T cell viability after 16 hours pre-incubation with CHOP components; assay type: cell-based
[1] = system: CD20-expressing Raji-luc tumor cells; conditions: even in the presence of an excess of IgG1-RTX-FEAR (rituximab variant with inert Fc domain); cited from earlier work
[2] = system: primary DLBCL and follicular lymphoma patient biopsies; conditions: biopsies taken a certain amount of time after administration of an anti-CD20 antibody; cited from earlier work
[3] = T cells pretreated 16 hours with the CHOP component

For `O=P1(N(CCCl)CCCl)NCCCO1` (stereo not drawn) [cyclophosphamide, 2H-1,3,2-Oxazaphosphorin-2-amine, N,N-bis(2-chloroethyl)tetrahydro-, 2-oxide], the T cell viability (T cells) was “did not impact T cell viability”.
For `CC[C@]1(O)C[C@H]2CN(CCc3c([nH]c4ccccc34)[C@@](C(=O)OC)(c3cc4c(cc3OC)N(C=O)[C@H]3[C@@](O)(C(=O)OC)[C@H](OC(C)=O)[C@]5(CC)C=CCN6CC[C@]43[C@@H]65)C2)C1` [vincristine], the T cell viability (T cells; [3]) was “did not impact T cell viability”.
In the case of `COc1cccc2c1C(=O)c1c(O)c3c(c(O)c1C2=O)C[C@@](O)(C(=O)CO)C[C@@H]3O[C@H]1C[C@H](N)[C@H](O)[C@H](C)O1` [doxorubicin], the T cell viability (T cells; [3]) is reported as “reduction in T cell viability”.
With `C[C@]12C=CC(=O)C=C1CC[C@@H]1[C@@H]2C(=O)C[C@@]2(C)[C@H]1CC[C@]2(O)C(=O)CO` [prednisone, 17,21-dihydroxypregna-1,4-diene-3,11,20-trione] the T cell viability (T cells; [3]) was “did not impact T cell viability”.
For “epcoritamab: IgG1 bispecific CD3×CD20 antibody; heavy/light chain pairs SEQ ID NOs: 24/25 and 26/27; CAS 2134641-34-0”, the “tumor growth in the xenograft model” value [1] is listed as “effectively reduce tumor growth” and the “T-cell-mediated cytotoxicity in patient biopsies” value [2] is listed as “induced T-cell-mediated cytotoxicity”.
